Several values for one entry are separate records, joined by “and”; a condition that tells them apart may be missing. Equal entries are not always repeated. Where two headings read alike, the source gives them in different places.
Assays:
[1] = molecular target: thrombin mutant S195A; design: method as in PMID 29511224; settings: fluorescence titration at equilibrium; 400 mM ChCl, 50 mM Tris, 0.1% PEG8000, pH 8, 15 °C; read-out: Kd,app; cited from earlier work
[2] = system: thrombin mutant S195A; assay: Equilibrium titration of intrinsic fluorescence, FPR binding to thrombin; settings: thrombin versus prethrombin-2
From the text: Figure 3 Binding of FPR to thrombin.A, rapid kinetics of FPR binding to thrombin showing the fast ( α1 ) and slow ( α2 ) relaxations defining a mechanism of binding consistent with IF or CS (see also Fig. 1A). Continuous lines depict Equations 3 and 4 in the original report ([30]) with best-fit parameter values of Equation 1 or Equation 2 listed in Table 2. […] The discontinuous line for the slow relaxation was drawn with the empirical expression [α(0)xm+α(∞)x]/(xm+x) , where x = [FPR], with best-fit parameters listed in Table 2. The discontinuous line for the fast relaxation was drawn using Equation 3 with the four independent rate constants obtained from application of Equation 11 (Table 2). […] The four independent rate constants derived from application of the method compare well with the values determined from application of Equations 3 and 4 in the original report ([30]). […]
The value of Kd,app is obtained from titration of intrinsic fluorescence at equilibrium (Figs. 2B and 3B) according to the expression(13) F(x)=F0Kd,app+F1x/Kd,app+x=F0(1−ϑ)+F1ϑ where ϑ=x/(Kd,app+x) is the fractional saturation (Figs. 1C, 2B and 3B). […] At each value of the ligand concentration, the change in absorbance from the initial ( t=0 ) to final ( t=∞ ) state gives the equilibrium reading equivalent to F(x) in Equation 13.

[3] = system: thrombin mutant S195A; design: method as in PMID 29511224; settings: cited from earlier work
[4] = molecular target: prethrombin-2 (S195A mutant); design: method as in PMID 29511224; settings: fluorescence titration at equilibrium; 400 mM ChCl, 50 mM Tris, 0.1% PEG8000, pH 8, 15 °C; read-out: Kd,app; cited from earlier work
[5] = molecular target: prothrombin; design: method as in PMID 29511224; settings: fluorescence titration at equilibrium; 400 mM ChCl, 50 mM Tris, 0.1% PEG8000, pH 8, 15 °C; read-out: Kd,app; cited from earlier work
[6] = system: thrombin mutant S195A; assay: Rapid kinetics (stopped-flow) of FPR binding to thrombin
From the text: An important validation of the method is offered by application to a case where all rate constants have been determined from analysis of the two relaxations (Equations 3 and 4). In this case, one can assume no knowledge of the fast relaxation and consider only the slow relaxation and equilibrium titrations. We illustrate this point using FPR binding to the thrombin mutant S195A, inactivated at the catalytic S195 to prevent hydrolysis ([30]). Two relaxations were reported for this case, along with equilibrium titrations (Fig. 3, A and B). Analysis of the slow relaxation α2(x) yields α(0) = 0.60 ± 0.06 s^−1, α(∞) = 17 ± 2 s^−1, xm = 4.3 ± 0.4 μM, and α(xm) = 8.8 ± 0.9 s^−1 (Fig. 3A and Table 2). […] Interpretation of the binding mechanism in terms of CS gives k12 = 17 ± 2 s^−1 and koff = 0.60 ± 0.06 s^−1. Application of Equation 11 yields kon = 2.4 ± 0.2 μM^−1s^−1 and Equation 9 gives αˆ(0)=k12+k21 = 19 ± 2 s^−1 from which a value of k21 = 2.0 ± 0.2 s^−1 can be obtained (Table 2). These values are in excellent agreement with the ones reported originally from analysis of the two independent relaxations (Table 2) ([30]). When used in Equation 3 to predict the dependence of the fast relaxation α1(x) on [FPR], the curve (discontinuous line) deviates little from experimental data (Fig. 3A, top portion of the panel). Values derived from analysis of the two relaxations are obviously more rigorous and should be preferred when available, but the accuracy of values obtained by application of the method based on Equation 11 is noteworthy. The discrepancies in Table 2 between values of k21 for CS or koff and k32 for IF are small and the fast relaxation ( α1 in Fig. 3A) predicted from knowledge of a single, saturable relaxation ( α2 in Fig. 3A), and equilibrium binding measurements (Fig. 3B) is in excellent agreement with experimental data.
Figure 3 Binding of FPR to thrombin.A, rapid kinetics of FPR binding to thrombin showing the fast ( α1 ) and slow ( α2 ) relaxations defining a mechanism of binding consistent with IF or CS (see also Fig. 1A). Continuous lines depict Equations 3 and 4 in the original report ([30]) with best-fit parameter values of Equation 1 or Equation 2 listed in Table 2. […] The discontinuous line for the slow relaxation was drawn with the empirical expression [α(0)xm+α(∞)x]/(xm+x) , where x = [FPR], with best-fit parameters listed in Table 2. The discontinuous line for the fast relaxation was drawn using Equation 3 with the four independent rate constants obtained from application of Equation 11 (Table 2). The predicted fast relaxation (discontinuous line) approximates quite well the actual experimental data and lends confidence to the validity of the method. B, fractional saturation of FPR binding to thrombin. […] This value, together with the parameters derived from analysis of the slow relaxation in panel A, allows for derivation of the value of kon from Equation 11. The four independent rate constants derived from application of the method compare well with the values determined from application of Equations 3 and 4 in the original report ([30]). Data in panels A and B were taken from ([30]) and were obtained under the following experimental conditions: 400 mM ChCl, 50 mM Tris, 0.1% PEG8000, pH 8, at 15 °C. CS, conformational selection; FPR, H-D-Phe-Pro-Arg-p-nitroanilide; IF, induced fit.
(§1) The data analyzed in this study, that is, FPR binding to prethrombin-2, prothrombin, and thrombin (Figs. 2, A and B and 3, A and B) were taken from ([30]) without modification. The methodology used to produce the recombinant proteins, measure FPR binding by stopped-flow or equilibrium titrations is reported in ([30]) and references therein. Values of the slow relaxation α(x) (Fig. 1, A and B, 2A and 3A) are measured by stopped-slow as a function of the ligand concentration and derived from fit of the time evolution of the interaction according to the expression ([1])(12) A(x,t)=A0(x)+A1(x)exp{−α(x)t}

[7] = system: prethrombin-2 (S195A mutant); assay: Rapid kinetics (stopped-flow) of FPR binding to prethrombin-2
From the text: Rapid kinetics of FPR binding to thrombin resolved the two independent relaxations (Equations 3 and 4) for CS and the four independent rate constants. On the other hand, similar measurements for prethrombin-2 produced only a saturable relaxation increasing with [FPR] (Fig. 2A) ([30]), thereby preventing resolution of the four independent constants and a full comparison with the mature protease thrombin. This situation provides an ideal test for application of the method based on Equation 11. The saturable relaxation for FPR binding to prethrombin-2 increases from α(0) = […] to α(∞) = 150 ± 20 s^−1, with a midpoint xm = 200 ± 20 μM and α(xm) = 88 ± 9 s^−1 (Fig. 2A and Table 2). […] Interpretation of the saturable relaxation in terms of CS gives k12 = 150 ± 20 s^−1 and koff = 25 ± 3 s^−1. Application of Equation 11 then yields kon = 4.0 ± 0.4 μM^−1s^−1 and Equation 9 gives αˆ(0)=k12+k21 = 890 ± 90 s^−1, so k21 = 740 ± 70 s^−1 (Table 2). The value of kon is almost identical to that reported for the mature protease thrombin (2.6 ± 0.3 μM^−1s^−1), whilst the value of koff is 40-fold higher (25 ± 3 s^−1 versus 0.60 ± 0.06 s^−1) ([30]). […] The conclusion is independent of whether FPR binding to prethrombin-2 is interpreted according to CS or IF. Application of the conversion formulas in Table 1 gives rate constants for IF equal to kon = 4.0 ± 0.4 μM^−1s^−1, koff = 765 ± 80 s^−1, k23 = 120 ± 10 s^−1, and k32 = 29 ± 3 s^−1 (Table 2), thereby making the contribution of a decreased rate of dissociation in the protease even more evident. Importantly, the two sets of rate constants for IF and CS yield the same value for Kd,app (Table 2), as shown by application of Equation 10 and the conversion formulas in Table 1. The importance of koff in setting the difference between ligand binding to prethrombin-2 and thrombin was anticipated by previous studies ([30]). The method based on Equation 11 provides a quantitative estimate of the difference and adds rigor to previous conclusions.
(§2) Figure 2 Binding of FPR to thrombin zymogens.A, rapid kinetics of FPR binding to the zymogens prothrombin (closed circles) and prethrombin-2 (open circles), showing a saturable relaxation associated with the interaction. The lack of information on a fast relaxation increasing linearly with [FPR] prevented assignment of the value of kon in the original report ([30]). Curves were drawn with the empirical expression [α(0)xm+α(∞)x]/(xm+x) , where x =[FPR], with best-fit parameters listed in Table 2. B, fractional saturation of FPR binding to prothrombin (closed circles) and prethrombin-2 (open circles). These values, together with the parameters derived from the plots in panel A, allow for derivation of the value of kon from Equation 11. […] Data in panels A and B were taken from ([30]) and were obtained under the following experimental conditions: 400 mM ChCl, 50 mM Tris, 0.1% PEG8000, pH 8, at 15 °C. CS, conformational selection; FPR, H-D-Phe-Pro-Arg-p-nitroanilide; IF, induced fit.
as §1

[8] = system: prothrombin; assay: Rapid kinetics (stopped-flow) of FPR binding to prothrombin; settings: model independent, fit of data from ref 30
From the text: as §2
The method also offers a simple test of whether the experimental data under consideration require more complex binding mechanisms than IF or CS. This is an important property of the method that may prompt reconsideration of current interpretations of ligand binding in terms of IF or CS made from analysis of a single saturable relaxation. The denominator of Equation 11 introduces a constraint on the relative values of Kd,app and xm . If the resulting term is negative, the model independent parameters (Equations (5), (6), (7) and 10) of the slow relaxation cannot be interpreted in terms of IF or CS. The data describing the kinetic relaxation (Fig. 1, A and B) and equilibrium binding (Fig. 1C) become incompatible when interpreted with Equations 9 and 10 and more elaborate mechanisms should be considered. We illustrate this point for the case of FPR binding to prothrombin, which is the physiological zymogen precursor of thrombin ([23]). Prothrombin is composed of a protease domain identical to prethrombin-2 linked to additional kringles and Gla domains that are shed during activation to thrombin by prothrombinase in the penultimate step of the coagulation cascade ([23], [31]). Because prothrombin and prethrombin-2 share the same protease domain, binding of FPR may be expected to take place with a similar affinity and mechanism in the two zymogens. […]
as §1, with “The methodology used to produce the recombinant proteins, measure FPR binding by stopped-flow or equilibrium titrations is reported in ([30]) and references therein.” left out

[9] = system: thrombin; design: method as in PMID 23467412; settings: thrombin versus zymogen prethrombin-2; cited from earlier work
[10] = CS, from analysis of two relaxations
[11] = model independent, derived from Equation 11
[12] = model independent, 400 mM ChCl, 50 mM Tris, 0.1% PEG8000, pH 8, 15 °C, fit of data from ref 30
[13] = model independent, pH 8, 15 °C, fit of data from ref 30
[14] = IF, conversion formulas of Table 1

N=C(N)NCCC[C@H](NC(=O)[C@@H]1CCCN1C(=O)[C@H](N)Cc1ccccc1)C(=O)Nc1ccc([N+](=O)[O-])cc1 [FPR, H-D-Phe-Pro-Arg-p-nitroanilide]
Kd [1]: 0.28 ± 0.02 µM
difference in equilibrium binding affinity between prethrombin-2 and thrombin [2]: > 100 fold
k12 [3, 10]: 16 ± 1 s⁻¹
k21 [3, 10]: 3.8 ± 0.8 s⁻¹
koffCS [3, 10]: 0.6 ± 0.1 s⁻¹
konCS [3, 10]: 2.6e+06 ± 300000 M⁻¹ s⁻¹
k23 ([3]; IF): 13 ± 1 (13 ± 1) s^−1
k32 ([3]; IF): 2.6 ± 0.3 s⁻¹
koffIF ([3]; IF): 4.4 ± 0.4 s⁻¹
konIF ([3]; IF): 2.6e+06 ± 300000 M⁻¹ s⁻¹
Kd [4]: 37 ± 4 µM
Kd [5]: 195 ± 20 µM
αˆ(0)=k12+k21 ([6]; CS, from Equation 9): 19 ± 2 s⁻¹
k12 ([6]; CS, method of this paper): 17 ± 2 s⁻¹
k21 ([6]; CS, method of this paper): 2.0 ± 0.2 s⁻¹
koffCS ([6]; CS, method of this paper): 0.60 ± 0.06 s⁻¹
konCS ([6]; CS, method of this paper (Equation 11)): 2.4e+06 ± 200000 M⁻¹ s⁻¹
k23 ([6]; IF, method of this paper): 13 ± 1 (13 ± 1) s^−1
k32 ([6]; IF, method of this paper): 4.4 ± 0.4 s⁻¹
koffIF ([6]; IF, method of this paper): 2.6 ± 0.3 s⁻¹
konIF ([6]; IF, method of this paper): 2.4e+06 ± 200000 M⁻¹ s⁻¹
kon [6, 11]: 2.4e+06 ± 200000 M⁻¹ s⁻¹
α(0), lower asymptote of slow relaxation [6, 12]: 0.60 ± 0.06 s⁻¹
α(∞), asymptote of slow relaxation [6, 12]: 17 ± 2 s⁻¹
xm, midpoint of the slow relaxation [6, 13]: 4.3 ± 0.4 µM
α(xm), slow relaxation at midpoint [6, 13]: 8.8 ± 0.9 s⁻¹
αˆ(0)=k12+k21 ([7]; CS, from Equation 9): 890 ± 90 s⁻¹
k12 ([7]; CS, method of this paper): 150 ± 20 s⁻¹ and 150 ± 10 s⁻¹
k21 ([7]; CS, method of this paper): 740 ± 70 s⁻¹
koffCS ([7]; CS, method of this paper): 25 ± 3 s⁻¹
konCS ([7]; CS, method of this paper): 4e+06 ± 400000 M⁻¹ s⁻¹
koff higher for prethrombin-2 than for thrombin ([7]; CS, prethrombin-2 versus thrombin): 40 fold
k23 [7, 14]: 120 ± 10 s⁻¹
k32 [7, 14]: 29 ± 3 s⁻¹
koffIF [7, 14]: 765 ± 80 s⁻¹
konIF [7, 14]: 4e+06 ± 400000 M⁻¹ s⁻¹
kon [7, 11]: 4e+06 ± 400000 M⁻¹ s⁻¹
α(0), lower asymptote of slow relaxation [7, 12]: 25 ± 0.3 s⁻¹ and 25 ± 2 s⁻¹
xm, midpoint of the slow relaxation [7, 13]: 200 ± 20 µM
α(xm), slow relaxation at midpoint [7, 13]: 88 ± 9 s⁻¹
α(∞), asymptote of slow relaxation [7, 13]: 150 ± 20 s⁻¹ and 150 ± 10 s⁻¹
α(0), asymptote of slow relaxation ([8]; 400 mM ChCl, 50 mM Tris, 0.1% PEG8000, pH 8, 15 °C): 45 ± 4 s⁻¹ and 45 ± 5 s⁻¹
xm, midpoint of the slow relaxation ([8]; pH 8, 15 °C): 54 ± 5 µM
α(xm), slow relaxation at midpoint ([8]; pH 8, 15 °C): 26 ± 3 s⁻¹
α(∞), asymptote of slow relaxation ([8]; pH 8, 15 °C): 6.9 ± 0.7 s⁻¹

CC1CNc2c(cccc2S(=O)(=O)N[C@@H](CCCNC(=N)N)C(=O)N2CC[C@@H](C)C[C@@H]2C(=O)O)C1 (stereo partly shown) [argatroban]
affinity for thrombin higher than for prethrombin-2 [9]: 200 fold

— PMC10979105, “A simple method to resolve rate constants when the binding mechanism obeys induced fit or conformational selection” (The Journal of Biological Chemistry, 2024)
